For one assay, the target named is TNFα trimer (Homo sapiens, UniProt P01375). As to the kind of experiment: Mass spectrometric analysis of compound binding to and stabilisation of TNFα trimer. As for the experimental part: Mass spectrometry was typically performed using a Waters LCT-premier Time-of-Flight mass spectrometer or a Waters SynaptG2 Q-TOF mass spectrometer. Samples were introduced using an Advion Triversa Nanomate nanoflow infusion device which replaces the conventional spectrometer source, sample injection was via an “A” series chip with […] nozzle size at a nominal flow rate of 100 nl/min. Further modifications to the Waters LCT-premier Time-of-Flight mass spectrometer include a customised source cooling device allowing precise control of the source temperature and a commercial pressure regulation device giving precise control over the vacuum conditions in the source region. Together these modifications help retain the TNFα trimer in a native, folded conformation and facilitate the detection of complexes formed with test compounds of weak affinities.
Sequence of TNFα trimer (P01375 77-233 limits assumed): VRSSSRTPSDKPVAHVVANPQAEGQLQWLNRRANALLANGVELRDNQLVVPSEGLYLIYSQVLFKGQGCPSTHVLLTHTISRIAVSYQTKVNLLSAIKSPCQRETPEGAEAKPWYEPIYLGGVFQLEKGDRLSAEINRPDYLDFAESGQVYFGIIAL
Ions were generated using standard positive ion electrospray conditions resulting in multiple charging of TNFα.
Mass spectrometry is very sensitive to the buffer salts present in the protein sample. Typical buffer salts such as potassium or sodium phosphates have a severely detrimental affect on ionisation. Accordingly protein samples were pre-treated to remove these salts using a Zeba desalt spin column, the protein being exchanged into a mass spectrometry compatible buffer system, typically 50 mM Ammonium Acetate at pH 6.8.
Typically the test compounds were presented as 10 mM DMSO stock solutions such that when they are incubated with TNFα in solution the final DMSO concentration is 5%. […] This is evidenced by the changes in the number of charges acquired by the protein under the various conditions described.
Test compounds were prepared as 10 mM solutions in dimethylsulphoxide (DMSO). Therefore, it was necessary to establish the effect of DMSO on the native TNFα trimer in the absence of a test compound. DMSO was added to an aqueous solution of TNFα trimer to give a final concentration of 5% v/v and the mass spectrum acquired.
The compound of formula (1) was added to a solution containing TNFα and 5% v/v DMSO and the mass spectrum acquired.
Further evidence for the stabilization of the trimeric form of TNFα by the test compounds was obtained from analyzing the samples under harsher ionization conditions that tend to favour breakdown of the native trimeric form into monomers.
Incubation of a library of test compounds, including the compound of formula (1) with TNFα was monitored by mass spectrometry under soft ionization conditions. […] This confirms that the test compounds, including the compound of formula (1), have a different mode of action to known compounds, which stabilize the dimeric form of TNFα.
A species of lower molecular weight (˜473 Da appears to bind at less than 5% occupancy). C87 has a molecular weight of 503 Da.

A further assay addresses h-TNFα (Homo sapiens, UniProt P01375). As to the kind of experiment: Monomer exchange in TNFα trimers by mass spectrometry, compound pre-incubated with human TNFα. It counts as binding. To be noted: 18 hours; for off-rate from h-TNFα: 1:1 complex with h-TNFα mixed with m-TNFα; for cross species monomer subunit exchange: compound preincubated with h-TNFα, then m-TNFα added. As for the experimental part:
(§1) Human and mouse homotrimers of TNFα (H3 and M3 respectively) were incubated together and aliquots of the solution monitored by mass spectrometry appearance of the cross species heterotrimers. The mass spectrometric analysis confirmed that monomer exchange between native TNFα trimers was able to occur in solution. The exchange rate was slow and was monitored over a course of 4 hours before full equilibration was achieved (data not shown). The mechanism is unknown, although is it unlikely to involve formation of the dimeric forms as none of these were observed. Monomer exchange is likely to be occurring between pure human and mouse trimers, the mixing of mouse and human trimers simply makes this exchange visible by mass spectrometry.
In a second series of experiments an excess of the compound of formula (1) was incubated with Human TNFα, the excess compound of formula (1) was then removed. Mass Spectral analysis confirmed that a 1:1 complex had been formed between the compound of formula (1) and h-TNFα. Mouse TNFα was now added to this sample which was then subjected to mass spectral analysis over a number of hours. After 18 hours there was no observed change in the composition of the sample. […] In addition, there was no evidence of formation of the M3L species and no evidence of formation of the unligated H3 species.
These two experiments were then repeated with the compound of formula (2) instead of the compound of formula (1). The results when the compound of formula (2) was pre-incubated with h-TNFα to give a 1:1 complex and then mixed with unligated m-TNFα were the same as with the compound of formula (1).

A further assay addresses T1, m-TNFα (Mus musculus, UniProt P06804).
T1 sequence (P06804 80-235 limits assumed): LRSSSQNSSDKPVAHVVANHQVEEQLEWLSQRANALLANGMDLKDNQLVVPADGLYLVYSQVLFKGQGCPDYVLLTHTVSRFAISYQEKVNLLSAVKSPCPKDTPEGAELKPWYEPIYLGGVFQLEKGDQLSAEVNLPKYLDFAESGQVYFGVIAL
As to the kind of experiment: Monomer exchange in TNFα trimers by mass spectrometry, compound pre-incubated with mouse TNFα. It counts as binding. As to conditions: for off-rate from m-TNFα: 1:1 complex with m-TNFα mixed with h-TNFα; for cross species monomer subunit exchange: compound preincubated with m-TNFα, then h-TNFα added. As for the experimental part: as §1
The experiment was then repeated in reverse. Excess compound of formula 1 was incubated with Mouse TNFα, the excess compound of formula (1) was then removed. Mass Spectral analysis confirmed that a 1:1 complex had been formed between the compound of formula (1) and m-TNFα. Human TNFα was now added to this sample which was then subjected to mass spectral analysis over a number of hours. […] In addition there was evidence of formation of the ligated human homotrimer (H3L), the unligated mouse homotrimer (M3) and for unbound compound of formula (1) (L). […] Once this complex (M3L) has dissociated, monomer subunit exchange between the H3 and M3 species proceeds and the liberated ligand is then able to form complexes with all 4 trimer species present in solution.

The target in a further assay is TNFα (Homo sapiens, UniProt P01375). Nature of the assay: Fluorescence polarization assay, competition with the compound of formula (4) for TNFα. To be noted: TNFα 50 nM, compound of formula (4) 10 nM, 5% DMSO; read-out: IC50 (inhibition of binding of the compound of formula (4) to TNFα). As for the experimental part: The final concentrations of TNFα and the compound of formula (4) were 50 nM and 10 nM respectively in a total assay volume of 25 μl. Plates were read on an Analyst HT reader. An IC50 was calculated using xlfit (4 parameter logistic model) in Activity Base.
Sequence of TNFα (P01375 77-233 limits assumed): as the sequence (P01375 77-233 limits assumed) above
C87 was preincubated with TNFα for 1 hour prior to assay against the fluorescent compound (probe). Competition with the fluorescent compound either directly (binding at the same site) or indirectly (disrupting TNF) is detected by a reduction in FP.
In general terms: Polarisation of emitted light reports the rotation of a fluorescent probe.

The record followed here is US10705094B2, “TNF receptor signaling modulator assay” (UCB Biopharma SRL, priority 2015, dated 2020).

Sequence of h-TNFα (P01375 77-233 limits assumed): as the sequence (P01375 77-233 limits assumed) above

With `Cc1ccc(C)c(Cn2c(C(O)c3ccncc3)nc3ccccc32)c1` (stereo not drawn) [Compound (1), [1-(2,5-Dimethylbenzyl)-1H-benzimidazol-2-yl](pyridin-4-yl)methanol], on TNFα trimer (5% v/v DMSO, soft ionisation), the “stabilisation of trimeric TNFα (charge state envelope)” value was “stabilization of the trimeric TNFα complex over and above that observed in the absence of DMSO”. Further, at TNFα trimer (harsher ionization conditions, data not shown), the “quantity of TNFα monomer detected” value was “significantly reduced”. On TNFα trimer (soft ionization conditions), the “binding to the monomeric form of TNFα” value is “not observed to bind”, the “stabilization of the dimeric form of TNFα” value is recorded as “no evidence for stabilization” and the stoichiometry of binding result is “one molecule of the compound of formula (1) per TNFα trimer”. For the same compound, at h-TNFα, the “off-rate from h-TNFα” value was “no measurable off-rate” and the “cross species monomer subunit exchange” value is reported as “no cross species monomer subunit exchange was observed”. Moreover, on m-TNFα, the “off-rate from m-TNFα” value is on record as “measurable off-rate” and the “cross species monomer subunit exchange” value is reported as “did not prevent monomer subunit exchange”. The IC50 at TNFα is 167 nM.
As to `Cc1ccc(C)c(Cn2c(C(O)c3ccncc3)nc3ccc(-c4cnn(C)c4)cc32)c1` (stereo not drawn) [Compound (2), [1-(2,5-Dimethylbenzyl)-6-(1-methyl-1H-pyrazol-4-yl)-1H-benzimidazol-2-yl](pyridin-4-yl)methanol], on h-TNFα, the “off-rate from h-TNFα” value is “no measurable off-rate” and the “cross species monomer subunit exchange” value is “No monomer subunit exchange was observed”. At m-TNFα, the “off-rate from m-TNFα” value is “no measurable off-rate” and the “cross species monomer subunit exchange” value is on record as “no monomer subunit exchange was observed”. In addition, the half-maximal inhibitory concentration (IC50) at TNFα is 102 nM.

Broadly, the IC50 is the point on the concentration scale where inhibition reaches its midpoint.
